This assay deals with α1-adrenergic receptors. The assay is described as follows: 3H-Prazosin binding assay on rat forebrain membranes. The settings on record: for Percent Inhibition: Inhibition at 100 nM (100 nM receptor concentration as printed), 3H-Prazosin; for IC50 / Ki: 0.5 nM 3H-Prazosin; for Ki: 1 hr at room temperature. As for the experimental part:
Preparation of Rat Forebrain Membranes:
Rat brains were purchased from Animal Technologies, Tyler, Tex., and shipped on wet ice within 24 hours after being harvested. The forebrains were dissected and homogenized with a Tissue Tearor in 50 mM Tris, pH 7.5, containing 20 mM NaCl, 5 mM EGTA, 2 mM MgCl2, 21 μg/mL aprotinin, 0.5 mg/L leupeptin, 0.7 mg/L pepstatin, 0.2 mM PMSF. Each brain is homogenized in approximately 5 mL of this buffer. The homogenate is then spun at 1000 RPM (75×g) in a Sorval RC-5B centrifuge (SS-34 rotor) for 10 min. The pellets are discarded and the supernatants then respun at 17,000 RPM (22,500×g) for 15 min. The pellets were then resuspended in the same buffer as above containing 5 mM EDTA and no MgCl2 (1 brain/mL). Membranes were stored in 1 mL aliquots at -70° C.
Thawed membranes were dispersed into a homogenous solution by passing them through a 22 gauge needle 5 times. To initiate the assay, 50 μL of membrane were dispensed into a plastic 12×75 mm tube containing 1 mL of 50 mM Tris, pH 7.5, 0.5 nM ^3 H-Prazosin (New England Nuclear), and the compounds to be tested. Nonspecific binding was determined as ^3 H-Prazosin bound in the presence of 5 μM unlabeled prazosin. Incubation was for 1 hr at room temperature. Unbound radioactivity was removed by rinsing the membranes on Whatman GF/B glass fiber filters. Each filter was washed 3 times with 3 mL of 50 mM Tris, pH 7.5, 4° C. Filters were soaked overnight in 5 mL of Beckman ReadySafe scintillation cocktail then counted for one minute in a Wallac 1409 liquid scintillation counter.

By IC50 is commonly meant the midpoint of a concentration-inhibition curve. The low end stands for greater potency, the high end for weaker potency. One may read the Ki as a measure of affinity in units of concentration, obtained from inhibition or displacement.

Regarding “Bz-Nhphe-Nbiph-Nhphe [Bz--Nhphe--Nbiph--Nhphe]”, the “Percent Inhibition” value came to 24.8%.
On the same count and under the same terms, next, “Nphtyr-Nbiph-Nhphe [Nphtyr--Nbiph--Nhphe]”: 22.7%.
Take Noco-Nbiph-Nhphe [Noco--Nbiph--Nhphe]: the “Percent Inhibition” value is 23.6%.
Compound `NC(=O)CN(CCc1ccccc1)C(=O)CN(C(=O)CNCCc1ccc(O)cc1)c1ccc(-c2ccccc2)cc1` [Nhtyr--Nbiph--Nhphe, Nhtyr-Nbiph-Nhphe] displayed an IC50 of 19 nM and a Ki of 7 nM.
The compound Nhtyr--Nbiph--Nbhm registered an IC50 of 1400 nM and a Ki of 313 nM.
Regarding “Nzhphe-Nbiph-Nhphe [Nzhphe--Nbiph--Nhphe]”, the “Percent Inhibition” value stood at 53.9%.
On to Nhtyr-Npop-Nhphe [Nhtyr--Npop--Nhphe], for which the IC50 amounted to 490 nM and the Ki turned out to be 140 nM.
As for “Nhtyr-Nbiph-Nmhphe [Nhtyr--Nbiph--Nmhphe]”, the “Percent Inhibition” value amounted to 21.2%.
Still for that read-out and setting: in the case of “Nhtyr-Nbiph-Nphphe [Nhtyr--Nbiph--Nphphe]” it was 48.3%; in that of “Nhtyr- Npbiph-Nhphe [Nhtyr--Npbiph--Nhphe]”, 20.3%.

(Values after US5447916A, “Peptoid alpha-1 adrenergic receptor ligands” (Chiron Corporation, priority 1993, dated 1995).)
